In patent publication US20250263437A1, “POLYPEPTIDE FOR REPAIRING SKIN WOUND OR MUCOSAL INJURY, AND APPLICATION THEREOF” (Sichuan Gooddoctor Panxi Pharmaceutical Co., Ltd., priority 2021, published 2025):
Where no end group is shown, it is not given here.

Assays:
[1] = test system: ethanol-induced gastric ulcer model in mice; assay: Anti-ulcer effect on ethanol-induced gastric ulcer model in mice; type: in vivo; conditions: single administration; ulcer inhibition rate of test compound / ulcer inhibition rate of Compound 1
Protocol: Experimental animals: Six-week old C57BL/6JGPt male mice, weighing about 20 g/mouse, were selected, with 10 mice in each group, from GemPharmatech (Chengdu) Co., Ltd., animal license number: SCXK (Chuan) 2020-034. After the experimental animals were divided into groups, they were dosed according to Table 5 one day before the experiment. Among the groups, the model group was given 200 μl of pure water, and the other dose groups were given 200 μl of drug solution. After that, all the animals were fasted for 24 h with free access to water. The next day, 1 h after administration, the mice in each group were given 9 μl/g of absolute ethanol by oral gavage for modeling. After 1 h, the animals were sacrificed by cervical dislocation, the gastric cardia was ligated, the pylorus was occluded, and the whole stomach was removed. 1 mL of 1% formaldehyde solution was injected into the gastric lumen via the glandular stomach, the cardia was ligated, and the stomach was taken out and immediately immersed in 1% formaldehyde solution. After soaking for 30 min, the stomach tissue was taken out and cut open along the greater curvature. The content of the stomach was rinsed off with normal saline, the injury of the gastric mucosa in the mice were observed and measured after being laid flat, and the ulcer index and ulcer inhibition rate were calculated; panoramic photos of the stomach were taken; and finally, the gastric tissue sample was immersed in formalin and fixed. Calculation method for ulcer index: If the length of cord-like injury was greater than 1 mm, the length thereof was measured, with 1 point per millimeter; if the width thereof was greater than 1 mm, the score thereof was doubled according to the number of millimeters of the width; and if the length was less than 1 mm, a score of 0.5 was given, and the scores were added up to obtain the ulcer index of the animal. Method of data statistics: the ulcer index was expressed as mean±standard deviation; the ulcer inhibition rate was calculated by using the median value and mean value of the ulcer index in each dosage group and simulation group; and the data were statistically analyzed by means of Excel, and the difference data of the gastric ulcer index were statistically analyzed by means of independent sample T test.

HaCaT cells = assay: Proliferation of HaCaT cells (CCK8); type: cell-based, human; conditions: 0.2-0.8 μg/mL; 24 h, 48 h and 72 h; 1% serum
Protocol: Experimental method: Immortalized human keratinocytes (HaCaT cells) was adjusted to a concentration of 1.0×10^5 to 5.0×10^5/mL for passaging, and they were cultured at 37° C. and 5% CO2 for 24-36 h for biological activity detection. The cells were digested with 0.25% trypsin for 5 min, 1640 whole blood culture medium, the volume of which was not less than 1 time of the volume of the trypsin, was added to stop digestion, a cell suspension was collected, centrifuged at 1000 RPM for 3 min, the supernatant was discarded, 2 mL of 1640 whole blood culture medium was added to suspend the cells, 20 μL of the cell suspension was taken and stained with AOPI, the concentration of cells in the suspension was then detected by a cell counter, the suspension was prepared to a concentration of 5×10^4/mL with 1640 culture medium containing serum at a concentration of 10% and inoculated into a 96-well cell culture plate, with 100 μL per well, i.e., 5000 cells/well, and the plate was cultured at 37° C. and 5% CO2 overnight.
After 24 h, the original culture medium was discarded, and 100 μL of polypeptide compound solutions with different concentrations prepared with 1640 culture medium containing serum at a concentration of 1% were added, such that the final concentrations of the polypeptide compounds to be tested were 0.2, 0.4 and 0.8 ug/mL, respectively. In addition, an EGF control group was prepared by adding 100 μL of a recombinant human epidermal growth factor (EGF) solution prepared with 1640 culture medium containing serum at a concentration of 1%, with the final concentration being 100 ng/ml. In the model control group, an equal volume of 1640 culture medium containing serum at a concentration of 1% was added. After culturing at 37° C. and 5% CO2 for 24 h, 48 h and 72 h, the proliferation of the HaCaT cell line was detected by means of CCK8 kit.

FGFR1 = FGFR1 (Homo sapiens, UniProt P11362); assay: FGFR receptor binding assay: ultrafiltration/mass spectrometry affinity screening to FGFR1 protein target; conditions: ratio of lower-layer to upper-layer compound MS signal intensity; the greater the ratio, the stronger the affinity
Protocol: The affinity of the polypeptide compound prepared by the present invention to FGFR1 was tested by using a control FGFR1 allosteric inhibitor (product number SSR128129E from Sigma) as a positive compound control.
Screening for the affinity to FGFR1 was as follows: FGFR1 solutions with an appropriate concentration were taken, the positive compound SSR128129E (Sigma) at an appropriate concentration and sample solutions of the inventive polypeptide compounds, as freeze-dried powders, dissolved in protein buffers were then respectively added. After incubation at room temperature for 50 min, ultrafiltration and screening were carried out to obtain various treated solutions. An appropriate volume of acetonitrile was added to each treated solution to precipitate a protein, the solution was then centrifuged, and the supernatant was taken and analyzed by mass spectrometry.
Affinity screening conditions: One-dimensional liquid-phase conditions were: chromatographic column; PolyLC chromatographic column, mobile phase A: KH2PO4, NaCl, pH 7.5, mobile phase B: acetonitrile, column temperature: 8° C., flow rate: 1 mL/min, and injection volume: appropriate; and two-dimensional liquid-phase conditions were: chromatographic column: BONUS RRHD, mobile phase A: 0.1% formic acid aqueous solution, mobile phase B: 0.1% formic acid in acetonitrile, column temperature: 60° C., flow rate: 0.3 mL/min, and injection volume: 40 uL. Gradient elution was used, i.e., 98% A (0-1 min), 98-10% A (1-6 min), 10% A (6-7.5 min), 10-98% A (7.5-8 min), and 98% A (8-9.5 min). Mass spectrometry conditions: Agilent 6530 Q-Tof, ESI ion source, voltage 3.5 KV, mass-to-charge ratio scanning range m/z=200-3000, acquisition mode: positive ion scanning, ion source temperature: 350° C., solvent removal temperature: 300° C., and nitrogen flow rate: 8 L/min.

FGFR1, sequence (P11362 22-822, species assumed): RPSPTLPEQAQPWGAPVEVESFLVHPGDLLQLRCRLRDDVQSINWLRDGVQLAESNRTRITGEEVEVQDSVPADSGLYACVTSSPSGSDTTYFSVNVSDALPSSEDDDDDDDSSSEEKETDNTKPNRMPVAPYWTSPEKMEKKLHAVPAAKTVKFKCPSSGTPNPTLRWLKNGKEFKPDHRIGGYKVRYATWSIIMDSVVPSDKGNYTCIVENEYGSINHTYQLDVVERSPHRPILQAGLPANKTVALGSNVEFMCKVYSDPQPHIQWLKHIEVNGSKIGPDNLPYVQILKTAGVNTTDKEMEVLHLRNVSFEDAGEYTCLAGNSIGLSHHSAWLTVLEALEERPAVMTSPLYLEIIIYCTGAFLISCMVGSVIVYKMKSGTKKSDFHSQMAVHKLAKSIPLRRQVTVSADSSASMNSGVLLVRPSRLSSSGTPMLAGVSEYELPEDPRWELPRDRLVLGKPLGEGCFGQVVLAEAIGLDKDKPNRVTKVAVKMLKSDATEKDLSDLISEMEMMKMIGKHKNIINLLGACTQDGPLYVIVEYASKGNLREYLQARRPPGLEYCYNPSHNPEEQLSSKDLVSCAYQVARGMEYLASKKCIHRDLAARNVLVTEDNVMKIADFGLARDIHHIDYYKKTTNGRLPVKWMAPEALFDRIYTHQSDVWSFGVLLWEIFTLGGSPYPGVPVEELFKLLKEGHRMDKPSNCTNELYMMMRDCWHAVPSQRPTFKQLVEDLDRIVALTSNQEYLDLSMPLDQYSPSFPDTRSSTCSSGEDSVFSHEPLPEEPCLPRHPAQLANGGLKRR

Cb/Ct range (FGFR1)	Substance	Anti-ulcer activity (mean relative ulcer inhibition rate) [1]	effect on proliferation of HaCaT cells (HaCaT cells)
	SMQASLEAEAKGKAQD [Compound 49]	0.48	
	SMQASVEAEAKGKAE [Compound 42]	0.84	
	QASLEAEAKGK [Compound 4]	0.82	
	SMQASLEAESKGKAE [Compound 44]	0.16	
	Gly-Lys-Ala-Glu (GKAE; printed: Gly-Lys-Ala-Glu) [Compound 10]	0.56	
	SLQASLEAEAKGKAE [Compound 17]	0.74	
	QASLEAEAKGKAE [Compound 2]	0.45	
	STQASLEAEAKGKAE [Compound 48]	1.19	
	SVQASLEAEAKGKAE [Compound 12]	0.68	
	SMQASLEAAAKGKAE [Compound 20]	0.56	
	SMEASLEAEAKGKAE [Compound 37]	0.22	
	SMQASLEAEAKAKAE [Compound 56]	0.91	
	TASTLEAEAKGKAE [Compound 47]	0.61	
	SMQASLEAEAKGKAQ [Compound 13]	1.02	
	SMQASLEAEAHGKAE [Compound 32]	0.52	
	EAEAKGKAE [Compound 7]	1.69	
	SMAASLEAEAKGKAE [Compound 21]	0.87	
	EAEAKGK [Compound 46]	0.47	
	SMQASLEAEAKGK [Compound 3]	0.33	
	Ser-Met (O)-Gln-Ala-Ser-Leu-Glu-Ala-Glu-Ala-Lys-Gly-Lys-Ala-Glu [Compound 11]	1.08	
	SMQASLEAEAK [Compound 5]	0.84	

Cb/Ct range (FGFR1)	Substance	Anti-ulcer activity (mean relative ulcer inhibition rate) [1]	effect on proliferation of HaCaT cells (HaCaT cells)
	PAAEPVPLEAEAKGKAE [Compound 55]	0.20	
	SMQASLEAEAKGKAEA [Compound 52]	0.67	
	SMQASLEAEAKGKAN [Compound 24]	0.62	
	SMQASLEAEAAGKAE [Compound 18]	0.91	
	SMQASL [Compound 8]	0.89	
	Gln-Ala-Ser-Leu (QASL; printed: Gln-Ala-Ser-Leu) [Compound 9]	0.59	
	SMQASLEAEAKGKSE [Compound 60]	1.03	
	SMQASLEAEAKGAAE [Compound 26]	0.56	
	AEPVPLEAEAKGKAE [Compound 54]	0.59	
	SMQASLEAEAKGKAKQE [Compound 58]	0.52	
	SMQASLLAEAKGKAE [Compound 33]	0.31	
	SMQASLEAEAKGHAE [Compound 31]	0.50	
	EAEAAGKAE [Compound 61]	0.52	
	AMQASLEAEAKGKAE [Compound 29]	1.00	
	SAQASLEAEAKGKAE [Compound 16]	0.98	
	SMQASLQAQAKGKAE [Compound 14]	0.49	
	SMQASLEADAKGKAE [Compound 39]	0.83	
	SMQASLEAEAKGKAEL [Compound 51]	0.62	
	SMQASAEAEAKGKAE [Compound 15]	0.72	
	SMQASLQAEAKGKAE [Compound 35]	0.57	
	SMQASLEAEARGKAE [Compound 30]	0.33	

Cb/Ct range (FGFR1)	Substance	Anti-ulcer activity (mean relative ulcer inhibition rate) [1]	effect on proliferation of HaCaT cells (HaCaT cells)
	SMQASLEAEAKGKAA [Compound 27]	0.51	
	SMQASLEAEAKGKAD [Compound 23]	0.70	
	SMQASLEAEAKPKAE [Compound 57]	1.12	proliferation-promoting effect
	SMQASLEAEAKGKAQE [Compound 50]	0.09	
	SMQASLESEAKGKAE [Compound 43]	0.30	
	SMQASLAAEAKGKAE [Compound 19]	0.64	
	SIQASLEAEAKGKAE [Compound 22]	0.81	
	SMQATLEAEAKGKAE [Compound 41]	0.92	
	SMQASLEAQAKGKAE [Compound 36]	0.07	
	Teprenone [reference compound]	0.5	
	Glu-Ala-Glu-Ala (EAEA; printed: Glu-Ala-Glu-Ala) [Compound 45]	0.50	
1.0-3	AAVLEKLE [Compound 69]	1.25	proliferation-promoting effect
	SMQAALEAEAKGKAE [Compound 28]	0.67	
	SMQASLEALAKGKAE [Compound 34]	0.91	
	SMQASLEAEAKGKAKQD [Compound 53]	0.44	proliferation-promoting effect
	RKDVYEAEAKGKAE [Compound 59]	0.48	
	SMQASLEAEAKGRAE [Compound 25]	0.36	
	SMQASLDAEAKGKAE [Compound 38]	1.38	
	TMQASLEAEAKGKAE [Compound 40]	0.18	
1.0-3	FDALKQQFQAFQLE [Compound 62]	0.89	
